Test results taken from patent US12144864B2, “Tubulysins and protein-tubulysin conjugates” (Regeneron Pharmaceuticals, Inc., priority 2018, dated 2024).
Read-outs that look alike come from different tables or passages of the source.

Assays:
[1] = system: H69AR cells; test: Cytotoxicity in panel of MDR cell lines, H69AR (72 h and 144 h); assay type: cell-based, human; conditions: for IC50: Homo sapiens
Method: (§1) To test the ability of the disclosed tubulysin payloads to kill human cell lines, an in vitro cytotoxicity assay was performed. In vitro cytotoxicity of the disclosed payloads, as well as reference compounds, were evaluated using the CellTiter-Glo Assay Kit (Promega, Cat #G7573), in which the quantity of ATP present is used to determine the number of viable cells in culture. For the assay, C4-2, HEK293, or T47D cells were seeded at 4000 cells/well on Nunclon white 96-well plates in complete growth medium (DME high glucose:Ham's F12 at 4:1, 10% FBS, 100 units/ml Penicillin, 100 ug/ml streptomycin, 53 ug/ml glutatmine, 10 ug/ml insulin, 220 ng/ml biotin, 12.5 pg/ml T3, 12.5 ug/ml Adenine, 4 ug/ml transferrin for C42 cells; DME high glucose, 10% FBS, 100 units/ml Penicillin, 100 ug/ml streptomycin, 53 ug/ml glutatmine for HEK293; RPMI, 10% FBS, 100 units/ml Penicillin, 100 ug/ml streptomycin, 53 ug/ml glutatmine, 10 ug/ml insulin, 10 mM HEPEs, 200 nM Sodium Pyruvate for T47D cells) and grown overnight at 37° C. in 5% CO2. For cell viability curves, 1:3 serially diluted payloads were added to the cells at final concentrations ranging from 100 nM to […], including a no treatment control group, and were then incubated for 5 days. After the 5-day incubation, cells were incubated at room temperature with 100 μL of CellTiter-Glo reagents for 10 minutes. Relative luminescence units (RLU) were determined on a Victor plate reader (PerkinElmer). The IC50 values were determined from a four-parameter logistic equation over a 10-point response curve (GraphPad Prism). All IC50 values are expressed in molar (M) concentration. The percent cell killing (% kill) at the maximum concentration tested was estimated from the following formula (100−% viable cells). Averages±standard deviation (SD) are included where replicate experiments were performed.
(§2) To further test the ability of the disclosed tubulysin payloads, a cytotoxicity assay was performed using a panel of multidrug resistant (MDR) cell lines. In vitro cytotoxicity of the disclosed payloads as well as reference compounds were similarly evaluated as described above except using HCT-15 cells, a colorectal carcinoma cell line; H69AR, a doxorubicin resistant MDR derivative of the small cell lung cancer carcinoma cell line NCI-H69; MES-SA/MX2, a mitoxantrone resistant MDR derivative of the uterine sarcoma cell line MES-SA; and HL60/MX2, a mitoxantrone resistant MDR derivative of the acute promyelocytic leukemia cell line HL60. In these assays, cytotoxicity was evaluated in normal growth media (RPMI, 10% FBS, 100 units/ml Penicillin, 100 ug/ml streptomycin, and 53 ug/ml glutatmine for HCT-15 and HL60/MX2; RPMI, 20% FBS, 100 units/ml Penicillin, 100 ug/ml streptomycin, and 53 ug/ml glutatmine for H69-AR; Waymouths's:McCoy's (1:1), 10% FBS, 100 units/ml Penicillin, 100 ug/ml streptomycin, and 53 ug/ml glutatmine for MES-SA/MX2) with 1000 cells per well following 72 h and 144 h incubation with payloads.

[2] = system: HCT-15 cells; test: Cytotoxicity in panel of MDR cell lines, HCT-15 (72 h and 144 h); assay type: cell-based, human; conditions: for IC50: Homo sapiens
Method: as §1, §2

[3] = system: C4-2 cells; test: Cell-based killing assay of payloads (CellTiter-Glo), C4-2 cells; design: species or system human; conditions: 5-day incubation; for IC50: Homo sapiens, C4-2, 120 h, average ± SD where replicates; for C4-2 % Kill: at maximum concentration tested (100 − % viable cells)
Method: as §1

[4] = system: HL60/MX2 cells; test: Cytotoxicity in panel of MDR cell lines, HL60/MX2 (72 h and 144 h); assay type: cell-based, human; conditions: for IC50: Homo sapiens
Method: as §1, §2

[5] = system: HCT15 cells; test: cells; assay type: cell-based, human; conditions: HCT15 cells; for HCT-15 + verapamil % Kill / HCT-15 % Kill: maximum % cell killing
Method: as §1
In vitro cytotoxicity of the disclosed payloads as well as reference compounds were evaluated similarly as described above except using 1000 HCT15 cells, a colorectal carcinoma cell line, in growth medium (RPMI, 10% FBS, 100 units/ml Penicillin, 100 ug/ml streptomycin, 53 ug/ml glutatmine) with or without 5 ug/mL of Verapamil.

[6] = system: MES-SA/MX2 cells; test: Cytotoxicity in panel of MDR cell lines, MES-SA/MX2 (72 h and 144 h); assay type: cell-based, human; conditions: for IC50: Homo sapiens
Method: as §1, §2

[7] = 72 h incubation, read-out: H69AR IC50 72 h
[8] = 144 h incubation, read-out: H69AR IC50 144 h
[9] = 72 h incubation, read-out: HCT-15 IC50 72 h
[10] = 144 h incubation, read-out: HCT-15 IC50 144 h
[11] = 72 h incubation, read-out: HL60/MX2 IC50 72 h
[12] = 144 h incubation, read-out: HL60/MX2 IC50 144 h
[13] = with 5 ug/mL Verapamil, read-out: HCT-15 + verapamil IC50
[14] = Homo sapiens, HCT-15, without Verapamil, read-out: HCT-15 IC50
[15] = 72 h incubation, read-out: MES-SA/MX2 IC50 72 h
[16] = 144 h incubation, read-out: MES-SA/MX2 IC50 144 h

| Structure (SMILES) | H69AR % Kill 72 h ([1]; 72 h incubation) | H69AR % Kill 144 h ([1]; 144 h incubation) | IC50 [1, 7] | IC50 [1, 8] | HCT-15 % Kill 72 h ([2]; 72 h incubation) | HCT-15 % Kill 144 h ([2]; 144 h incubation) | IC50 [2, 9] | IC50 [2, 10] | IC50 [3] | C4-2 % Kill [3] | HL60/MX2 % Kill 72 h ([4]; 72 h incubation) | HL60/MX2 % Kill 144 h ([4]; 144 h incubation) | IC50 [4, 11] | IC50 [4, 12] | HCT-15 + verapamil % Kill ([5]; with 5 ug/mL Verapamil) | IC50 [5, 13] | MES-SA/MX2 % Kill 72 h ([6]; 72 h incubation) | MES-SA/MX2 % Kill 144 h ([6]; 144 h incubation) | IC50 [6, 15] | IC50 [6, 16] | also measured |
| --- | --- | --- | --- | --- | --- | --- | --- | --- | --- | --- | --- | --- | --- | --- | --- | --- | --- | --- | --- | --- | --- |
| CCCCCCN(C(=O)[C@@H](NC(=O)[C@H]1CCCCN1C)[C@@H](C)CC)[C@H](C[C@@H](OC(C)=O)c1nc(C(=O)N[C@@H](Cc2ccc(F)cc2)C[C@H](C)C(=O)O)cs1)C(C)C [IVa, (2S,4R)-4-(2-((1R,3R)-1-Acetoxy-3-((2S,3S)—N-hexyl-3-methyl-2-((R)-1-methylpiperidine-2-carboxamido)pentanamido)-4-methylpentyl)thiazole-4-carboxamido)-5-(4-fluorophenyl)-2-methylpentanoic acid] | 96.1% | 99.3% | 749 pM | 1380 pM | 97.8% | 99.6% | 166 pM | 318 pM | 65.3 pM | 95.2% |  |  |  |  |  |  |  |  |  |  |  |
| CC[C@H](C)[C@H](NC(=O)[C@H]1CCCCN1C)C(=O)N(CCCCc1cn(Cc2ccccc2)nn1)[C@H](C[C@@H](OC(C)=O)c1nc(C(=O)N[C@@H](Cc2ccc(N)cc2)CC(C)(C)C(=O)O)cs1)C(C)C [IVo, (S)-4-(2-((1R,3R)-1-Acetoxy-3-((2S,3S)—N-(4-(1-benzyl-1H-1,2,3-triazol-4-yl)butyl)-3-methyl-2-((R)-1-methylpiperidine-2-carboxamido)pentanamido)-4-methylpentyl)thiazole-4-carboxamido)-5-(4-aminophenyl)-2,2-dimethylpentanoic acid] | 96.2% | 99.1% | 779 pM | 1270 pM | 97.3% | 99.7% | 247 pM | 348 pM | 262 pM | 93.4% | 98.1% | 100% | 37.6 pM | < 15 pM | 97.6% | 109 pM | 98.9% | 99.9% | 1120 pM | 2960 pM | HCT-15 % Kill ([5]; without Verapamil): 98.6%; IC50 [5, 14]: 370 pM |
| CCCCCCN(C(=O)[C@@H](NC(=O)[C@H]1CCCCN1C)[C@@H](C)CC)[C@H](C[C@@H](OC(C)=O)c1nc(C(=O)NC(Cc2ccc(F)c(NC)c2)CC(C)(C)C(=O)O)cs1)C(C)C (stereo partly drawn) [IVt, 4-(2-((1R,3R)-1-acetoxy-3-((2S,3S)—N-hexyl-3-methyl-2-((R)-1-methylpiperidine-2-carboxamido)pentanamido)-4-methylpentyl)thiazole-4-carboxamido)-5-(4-fluoro-3-(methylamino)phenyl)-2,2-dimethylpentanoic acid] | 96.3% | 99.3% | 486 pM | 819 pM | 97.6% | 99.8% | 143 pM | 180 pM | 110 pM | 94.2% | 98.4% | 100% | < 15 pM | < 15 pM |  |  | 99.3% | 100% | 447 pM | 740 pM |  |
| CCCCCCN(C(=O)[C@@H](NC(=O)[C@H]1CCCCN1C)[C@@H](C)CC)[C@H](C[C@@H](OC(C)=O)c1nc(C(=O)NC(Cc2ccc(F)c(N)c2)CC(C)(C)C(=O)O)cs1)C(C)C (stereo partly drawn) [IVu, 4-({2-[(1R,3R)-1-(Acetyloxy)-3-[(2S,3S)—N-hexyl-3-methyl-2-{[(2R)-1-methylpiperidin-2-yl]formamido}pentanamido]-4-methylpentyl]-1,3-thiazol-4-yl}formamido)-5-(3-amino-4-fluorophenyl)-2,2-dimethylpentanoic acid] | 96.4% | 99% | 634 pM | 1040 pM | 97.9% | 99.8% | 134 pM | 242 pM | 114 pM | 93.9% | 98% | 99.9% | < 15 pM | < 15 pM |  |  | 98.8% | 100% | 535 pM | 1210 pM |  |
| CCCCCCON(C(=O)[C@@H](NC(=O)[C@H]1CCCCN1C)[C@@H](C)CC)[C@H](C[C@@H](OC(=O)NC)c1nc(C(=O)N[C@@H](Cc2ccc(O)cc2)C[C@H](C)C(=O)O)cs1)C(C)C [VIa, (2S,4R)-5-(4-Hydroxyphenyl)-4-(2-((5R,7R)-7-isopropyl-8-((2S,3S)-3-methyl-2-((R)-1-methylpiperidine-2-carboxamido)pentanoyl)-3-oxo-4,9-dioxa-2,8-diazapentadecan-5-yl)thiazole-4-carboxamido)-2-methylpentanoic acid] | 83.5% | 91.6% | 16000 pM | 80100 pM | 94% | 98.9% | 5420 pM | 7170 pM | 1860 pM | 94.1% |  |  |  |  | 98.4 ± 0.7% | 255 pM |  |  |  |  | HCT-15 % Kill ([5]; without Verapamil): 97 ± 1.9%; IC50 [5, 14]: 5800 pM |
| CCCCCON(C(=O)[C@@H](NC(=O)[C@H]1CCCCN1C)[C@@H](C)CC)[C@H](C[C@@H](OC(C)=O)c1nc(C(=O)N[C@@H](Cc2ccc(O)cc2)CC(C)(C)C(=O)O)cs1)C(C)C [X, (4S)-4-({2-[(1R,3R)-1-(Acetyloxy)-4-methyl-3-[(2S,3S)-3-methyl-2-{[(2R)-1-methylpiperidin-2-yl]formamido}-N-(pentyloxy)pentanamido]pentyl]-1,3-thiazol-4-yl}formamido)-5-(4-hydroxyphenyl)-2,2-dimethylpentanoic acid] |  |  |  |  |  |  |  |  | 60 pM |  |  |  |  |  |  |  |  |  |  |  | IC50 ([5]; with 5 ug/mL Verapamil, read-out: HCT-15 + verapamil IC50 (value in brackets)): 116 pM; IC50 ([5]; Homo sapiens, HCT-15, without Verapamil, read-out: HCT-15 IC50 (value in brackets)): 97 pM |
| CCCC(=O)OCN(C(=O)[C@@H](NC(=O)[C@H]1CCCCN1C)[C@@H](C)CC)[C@H](C[C@@H](OC(C)=O)c1nc(C(=O)N[C@@H](Cc2ccc(O)cc2)C[C@H](C)C(=O)O)cs1)C(C)C [reference compound] |  |  |  |  |  |  |  |  | 109 pM | 96.4% | 98% | 100% | < 15 pM | < 15 pM | 99.1% | 128 pM | 98.6% | 99.9% | 573 pM | 1330 pM | HCT-15 % Kill ([5]; without Verapamil): 99.1%; IC50 [5, 14]: 509 pM |
